Assay results reported in ChEMBL document CHEMBL4229529, “Synthesis, molecular docking, and biological activity of 2-vinyl chromones: Toward selective butyrylcholinesterase inhibitors for potential Alzheimer's disease therapeutics” (Bioorg Med Chem, 2018).
The source made the active and inactive calls. The rule behind the calls is not given here.

Key:
Cholinesterase [1] = biological target: T1, Cholinesterase (Equus caballus, UniProt P81908)
Description: Inhibition of equine serum BChE using butylthiocholine iodide as substrate incubated for 10 mins followed by substrate addition by Ellman's method

[2] = biological target: Cholinesterase (Equus caballus) (UniProt P81908); assay: Inhibition of equine serum BChE at 20 uM using butylthiocholine iodide as substrate incubated for 10 mins followed by substrate addition by Ellman's method relative to control
Sequence of Cholinesterase (Equus caballus) (P81908 whole entry): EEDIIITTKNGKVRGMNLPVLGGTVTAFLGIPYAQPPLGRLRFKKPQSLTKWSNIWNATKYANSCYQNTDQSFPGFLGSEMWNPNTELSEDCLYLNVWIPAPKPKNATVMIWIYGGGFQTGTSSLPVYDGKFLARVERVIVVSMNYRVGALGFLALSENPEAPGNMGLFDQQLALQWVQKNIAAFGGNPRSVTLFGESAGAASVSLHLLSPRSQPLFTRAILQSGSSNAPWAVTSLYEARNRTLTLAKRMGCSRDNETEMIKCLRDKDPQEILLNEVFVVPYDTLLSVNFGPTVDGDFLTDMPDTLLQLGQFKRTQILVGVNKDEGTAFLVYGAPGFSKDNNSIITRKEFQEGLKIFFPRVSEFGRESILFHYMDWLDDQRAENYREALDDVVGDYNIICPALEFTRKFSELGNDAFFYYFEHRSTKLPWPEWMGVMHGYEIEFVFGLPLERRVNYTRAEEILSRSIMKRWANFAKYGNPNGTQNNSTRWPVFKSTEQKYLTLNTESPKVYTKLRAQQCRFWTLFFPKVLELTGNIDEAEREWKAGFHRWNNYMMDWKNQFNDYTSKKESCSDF

Acetylcholinesterase = Acetylcholinesterase (Homo sapiens, UniProt P22303)
Sequence of Acetylcholinesterase (P22303 whole entry): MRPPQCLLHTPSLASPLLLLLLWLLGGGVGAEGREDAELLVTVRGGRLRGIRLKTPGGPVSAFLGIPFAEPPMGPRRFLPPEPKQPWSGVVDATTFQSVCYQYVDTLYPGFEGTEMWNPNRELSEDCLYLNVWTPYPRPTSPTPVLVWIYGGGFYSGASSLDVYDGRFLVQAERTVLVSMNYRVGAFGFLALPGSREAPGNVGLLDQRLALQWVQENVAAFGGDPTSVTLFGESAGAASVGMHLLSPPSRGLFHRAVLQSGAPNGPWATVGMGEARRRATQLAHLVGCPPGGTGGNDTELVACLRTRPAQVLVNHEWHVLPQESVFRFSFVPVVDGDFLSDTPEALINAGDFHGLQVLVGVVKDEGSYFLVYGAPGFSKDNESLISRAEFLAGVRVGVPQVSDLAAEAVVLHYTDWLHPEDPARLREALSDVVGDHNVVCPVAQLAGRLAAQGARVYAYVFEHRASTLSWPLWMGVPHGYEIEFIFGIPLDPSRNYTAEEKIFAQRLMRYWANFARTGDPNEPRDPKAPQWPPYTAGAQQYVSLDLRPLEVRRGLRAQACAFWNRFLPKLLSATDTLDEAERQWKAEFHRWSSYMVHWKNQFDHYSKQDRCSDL
Description: Inhibition of human erythrocyte AChE using acetylthiocholine iodide as substrate incubated for 10 mins followed by substrate addition by Ellman's method

Liver carboxylesterase [3] = biological target: T2, Liver carboxylesterase (Sus scrofa, UniProt Q29550)
T2 sequence (Q29550 whole entry): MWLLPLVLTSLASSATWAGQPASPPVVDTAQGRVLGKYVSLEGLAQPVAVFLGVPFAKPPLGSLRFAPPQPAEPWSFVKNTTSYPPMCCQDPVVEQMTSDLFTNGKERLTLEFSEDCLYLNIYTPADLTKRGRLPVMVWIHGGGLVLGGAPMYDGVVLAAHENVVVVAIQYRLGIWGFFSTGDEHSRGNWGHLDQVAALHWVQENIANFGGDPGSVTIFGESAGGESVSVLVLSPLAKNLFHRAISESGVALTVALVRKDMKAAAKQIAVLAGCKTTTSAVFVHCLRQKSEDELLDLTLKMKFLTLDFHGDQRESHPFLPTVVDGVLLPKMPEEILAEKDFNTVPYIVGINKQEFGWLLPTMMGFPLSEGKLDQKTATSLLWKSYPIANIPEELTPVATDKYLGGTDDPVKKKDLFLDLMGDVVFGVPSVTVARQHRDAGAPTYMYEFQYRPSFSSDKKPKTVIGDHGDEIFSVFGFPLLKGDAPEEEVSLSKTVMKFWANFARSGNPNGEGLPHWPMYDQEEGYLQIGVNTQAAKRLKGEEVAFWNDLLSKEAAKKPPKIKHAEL
Description: Inhibition of porcine liver carboxylesterase using 4-nitrophenol acetate as substrate incubated for 10 mins followed by substrate addition by spectrophotometric method

Liver carboxylesterase [4] = biological target: T2, Liver carboxylesterase; assay: in vitro; settings: pig, porcine liver carboxylesterase, probe 4-nitrophenol acetate
Description: Inhibition of porcine liver carboxylesterase at 20 uM using 4-nitrophenol acetate as substrate incubated for 10 mins followed by substrate addition by spectrophotometric method relative to control

Cholinesterase [5] = biological target: T1, Cholinesterase; assay: Competitive inhibition of equine serum BChE using butylthiocholine iodide as substrate incubated for 10 mins followed by substrate addition by Lineweaver-Burk double-reciprocal plot analysis
[6] = biological target: Cholinesterase (Equus caballus) (UniProt P81908); assay: Non-competitive inhibition of equine serum BChE using butylthiocholine iodide as substrate incubated for 10 mins followed by substrate addition by Lineweaver-Burk double-reciprocal plot analysis

T1 sequence (P81908 whole entry): as the sequence (P81908 whole entry) above

SMILES	IC50 (Cholinesterase [1]) [µM]	inhibition [2]	IC50 (Acetylcholinesterase) [µM]	IC50 (Liver carboxylesterase [3]) [µM]	inhibition at 10 min, 20 µM (Liver carboxylesterase [4]) [%]	Ki (Cholinesterase [5]) [µM]	alphaKi [6] [µM]
C=Cc1oc2c(OCC)cccc2c(=O)c1CN(/C=C/C(C)=O)Cc1ccccc1	50.1	–	–	–	–	–	–
CCOc1cccc2c(=O)c3c(oc12)CCN(Cc1ccccc1)C3	> 20	13.2%	> 20	–	–	–	–
C=Cc1oc2c(OCC)cccc2c(=O)c1CN(C)/C=C/C(=O)OC	–	inactive	–	> 20	7.9	–	–
C=Cc1oc2ccc(Br)cc2c(=O)c1CN(/C=C/C(C)=O)Cc1ccccc1	13.5	–	> 20	> 20	4.6	–	–
C=Cc1oc2ccccc2c(=O)c1CN(Cc1ccccc1)/C(=C/C(=O)OC)C(=O)OC	13.8	–	> 20	> 20	26.4	–	–
C=Cc1oc2ccc(Br)cc2c(=O)c1CN(Cc1ccccc1)/C(=C/C(=O)OC)C(=O)OC	> 20	21.9%	> 20	> 20	15.2	–	–
C=Cc1oc2c(OCC)cccc2c(=O)c1CN(Cc1ccccc1)/C(=C/C(=O)OC)C(=O)OC	> 20	11.2%	–	> 20	14.4	–	–
CCOc1cccc2c(=O)c3c(oc12)CCN(C)C3	–	inactive	> 20	> 20	7.6	–	–
CN1CCc2oc3ccc(Br)cc3c(=O)c2C1	> 20	4.2%	> 20	–	–	–	–
O=[N+]([O-])c1ccc(OP(=O)(O)Oc2ccc([N+](=O)[O-])cc2)cc1	–	inactive	–	–	–	–	–
C=Cc1oc2ccc(Br)cc2c(=O)c1CN(/C=C/C(=O)OC)Cc1ccccc1	2.27	–	> 20	> 20	22.4	1.55	6.9
C=Cc1oc2ccc(Br)cc2c(=O)c1CN(C)/C=C/C(=O)OC	> 20	14.1%	> 20	> 20	10.5	–	–
O=c1c2c(oc3ccccc13)CCN(Cc1ccccc1)C2	> 20	13%	> 20	–	–	–	–
COC(=O)/C=C(\C(=O)OC)N1CCc2oc3ccccc3c(=O)c2C1	> 20	7.5%	–	> 20	19.8	–	–
C=Cc1oc2c(OCC)cccc2c(=O)c1CN(/C=C/C(=O)OC)Cc1ccccc1	> 20	16.3%	–	> 20	25.9	–	–
C=Cc1oc2ccccc2c(=O)c1CN(/C=C/C(=O)OC)Cc1ccccc1	6.31	–	> 20	> 20	23.6	1.79	1.94
C=Cc1oc2ccccc2c(=O)c1CN(C)/C=C/C(=O)OC	> 20	18.4%	–	> 20	6.3	–	–
O=c1c2c(oc3ccc(Br)cc13)CCN(Cc1ccccc1)C2	> 20	3.3%	> 20	> 20	31.2	–	–
COC(=O)/C=C(\C(=O)OC)N1CCc2oc3ccc(Br)cc3c(=O)c2C1	> 20	4.3%	> 20	> 20	5.1	–	–
CCOc1cccc2c(=O)c3c(oc12)CCN(/C(=C/C(=O)OC)C(=O)OC)C3	> 20	20.7%	> 20	> 20	3.5	–	–
C=Cc1oc2ccccc2c(=O)c1CN(/C=C/C(C)=O)Cc1ccccc1	4.75	–	> 20	> 20	10	2.12	9.14
CN1CCc2oc3ccccc3c(=O)c2C1	–	inactive	–	> 20	6.4	–	–
